{"source": "the PolyMetriX glass transition set"}
{"units": {"glass transition temperature": "°C"}}
{"smiles": "*OP(=O)(Oc1ccc([N+](=O)[O-])cc1)Oc1c(Br)cc(C(c2cc(Br)c(*)c(Br)c2)(C(F)(F)F)C(F)(F)F)cc1Br", "note": "(repeat unit)", "glass transition temperature": 154.00}
{"smiles": "*O[Si](*)(C)CCCOC(=O)c1cc(OC(=O)c2ccc(OCCOCCOCCOCCOCCOCCOC)cc2)ccc1OC(=O)c1ccc(OCCOCCOCCOCCOCCOCCOC)cc1", "note": "(repeat unit)", "glass transition temperature": -46.00}
{"smiles": "*CC(*)c1ccccc1COC(C)C", "note": "(repeat unit)", "glass transition temperature": 88.00}
{"smiles": "*/C=C/c1cc(OC)c(/C=C/c2ccc(/C=C(\\Oc3ccccc3)c3ccc(/C(=C/c4ccc(*)cc4)c4ccc(Oc5ccccc5)cc4)cc3)cc2)cc1OC", "note": "(repeat unit)", "glass transition temperature": 175.00}
{"smiles": "*Nc1cc(NC(=O)c2ccc(C(*)=O)cc2)cc(C(=O)Oc2ccccc2)c1", "note": "(repeat unit)", "glass transition temperature": 200.00}
{"smiles": "*CC(*)C1CCC(C(C)(C)C)CC1", "note": "(repeat unit)", "glass transition temperature": 131.00}
{"smiles": "*CCCCCCCCCCCCOC(=O)NCCCCCCCCCCNC(=O)O*", "note": "(repeat unit)", "glass transition temperature": 34.00}
{"smiles": "*O[Si](*)(C)CCCCCCCCCCCOc1ccc(/C=C/c2ccc(OC)cc2)cc1", "note": "(repeat unit)", "glass transition temperature": 55.00}
{"smiles": "*C(=O)Nc1cccc(NC(=O)c2ccc3[nH]c(-c4cccc(-c5nc6cc(*)ccc6[nH]5)c4)nc3c2)n1", "note": "(repeat unit)", "glass transition temperature": 302.00}
{"smiles": "*c1ccc(Oc2ccc(N3C(=O)c4cccc(Oc5cccc(Oc6cccc7c6C(=O)N(*)C7=O)c5)c4C3=O)cc2)cc1", "note": "(repeat unit)", "glass transition temperature": 226.00}
{"smiles": "*C(=O)Nc1ccc(NC(=O)Nc2ccc(NC(=O)c3ccc4c(c3)C(=O)N(c3ccc(NC(=O)Nc5ccc(N6C(=O)c7ccc(*)cc7C6=O)cc5)cc3)C4=O)cc2)cc1", "note": "(repeat unit)", "glass transition temperature": 208.00}
{"smiles": "*c1ccc2oc(-c3ccc(-c4nc5cc(C(*)(c6ccccc6)C(F)(F)F)ccc5o4)cc3)nc2c1", "note": "(repeat unit)", "glass transition temperature": 369.00}
{"smiles": "*CC(OC(C)=O)C(COC(=O)O*)OC(C)=O", "note": "(repeat unit)", "glass transition temperature": 58.60}
{"smiles": "*CC(*)C(=O)OCCCCOc1ccc(/N=N/c2ccc([N+](=O)[O-])cc2)cc1", "note": "(repeat unit)", "glass transition temperature": 36.70}
{"smiles": "*CCOc1ccc(C(=O)Nc2cc(NC(=O)c3ccc(O*)cc3)cc(-c3nc4ccccc4[nH]3)c2)cc1", "note": "(repeat unit)", "glass transition temperature": 275.00}
{"smiles": "*c1ccc(OCCCCCCCCCCCOC(=O)c2cccc(C(=O)OCCCCCCCCCCCOc3ccc(-c4nnc(*)s4)cc3)c2)cc1", "note": "(repeat unit)", "glass transition temperature": 68.00}
{"smiles": "*O[Si](C)(C)c1ccc2ccc([Si](*)(C)C)cc2c1", "note": "(repeat unit)", "glass transition temperature": 26.00}
{"smiles": "*Oc1ccc(CC(NC(=O)CCc2ccc(OC(=O)COCC(*)=O)cc2)C(=O)OCCCCCCCC)cc1", "note": "(repeat unit)", "glass transition temperature": 40.00}
{"smiles": "*CCN(CCOC(=O)Nc1ccc(C)c(NC(=O)O*)c1)c1ccc(/N=N/c2ccc(-c3nc4cc([N+](=O)[O-])ccc4[nH]3)cc2)cc1", "note": "(repeat unit)", "glass transition temperature": 188.00}
{"smiles": "*c1ccc(-c2ccc(-c3ccc(-c4ccc(-c5ccc6c(c5)C(=O)N(c5cccc(N7C(=O)c8ccc(*)cc8C7=O)c5)C6=O)cc4)cc3)cc2)cc1", "note": "(repeat unit)", "glass transition temperature": 237.00}
{"smiles": "*c1ccc(Sc2cc3c(cc2Sc2ccc(N4C(=O)C5C6C=CC(C7C(=O)N(*)C(=O)C67)C5C4=O)cc2)C(=O)N(c2ccc(CC)cc2)C3=O)cc1", "note": "(repeat unit)", "glass transition temperature": 320.00}
{"smiles": "*c1ccc(C(=O)OCCCCCCCCCCCCOC(=O)c2ccc(-c3nnc(*)s3)cc2)cc1", "note": "(repeat unit)", "glass transition temperature": 68.00}
{"smiles": "*Oc1ccc(CNC(=O)CCCCC(=O)NCc2ccc(OC3COC4C(*)COC34)cc2)cc1", "note": "(repeat unit)", "glass transition temperature": 116.00}
{"smiles": "*C(=O)Nc1ccc(-c2sc(-c3ccc(NC(=O)c4ccc5c(c4)C(=O)N(c4ccc(-c6sc(-c7ccc(N8C(=O)c9ccc(*)cc9C8=O)cc7)c(-c7ccccc7)c6-c6ccccc6)cc4)C5=O)cc3)c(-c3ccccc3)c2-c2ccccc2)cc1", "note": "(repeat unit)", "glass transition temperature": 338.00}
